Measured values as given in PMC10291552, “Computational Design, Synthesis, and Biological Evaluation of Diimidazole Analogues Endowed with Dual PCSK9/HMG-CoAR-Inhibiting Activity” (Journal of Medicinal Chemistry, 2023).
Entries after “also recorded” stand apart in the source; their conditions may differ.

Legend:
[1] = molecular target: T1, HMG-CoAR (catalytic domain) (Homo sapiens, UniProt P04035); assay: HMG-CoAR activity assay (Sigma kit, NADPH oxidation at 340 nm); format: biochemical; details: 10–500 μM tested, 37 °C
T1 construct: and finally, HMG-CoAR (catalytic domain) (2 μL); purchased Sigma Aldrich
T1 sequence (P04035 426-888 limits assumed): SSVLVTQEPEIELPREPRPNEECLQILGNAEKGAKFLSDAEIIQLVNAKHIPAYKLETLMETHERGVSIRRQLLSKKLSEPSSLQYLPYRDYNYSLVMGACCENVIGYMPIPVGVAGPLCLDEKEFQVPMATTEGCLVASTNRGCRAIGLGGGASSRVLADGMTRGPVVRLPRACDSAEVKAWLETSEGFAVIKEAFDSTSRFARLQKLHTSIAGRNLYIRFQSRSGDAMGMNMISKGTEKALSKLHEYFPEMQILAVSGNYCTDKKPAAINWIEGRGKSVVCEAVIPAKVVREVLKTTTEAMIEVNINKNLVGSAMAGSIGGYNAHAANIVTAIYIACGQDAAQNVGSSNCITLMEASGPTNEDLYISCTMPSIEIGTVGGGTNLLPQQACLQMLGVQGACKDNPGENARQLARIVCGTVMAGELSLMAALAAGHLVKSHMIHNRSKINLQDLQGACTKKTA
Method: The experiments were carried out following the manufacturer’s instructions and optimized protocol.[43] The assay buffer, NADPH, substrate solution, and HMG-CoAR were provided in the HMG-CoAR Assay Kit (Sigma Aldrich SRL, Milan, Italy). The experiments were carried out following the manufacturer’s instructions at 37 °C. In particular, each reaction (200 μL) was prepared adding the reagents in the following order: 1× assay buffer, a 10–500 μM dose of sonicated Dim analogues or vehicle (C), NADPH (4 μL), the substrate solution (12 μL), and finally, HMG-CoAR (catalytic domain) (2 μL). Subsequently, the samples were mixed, and the absorbance at 340 nm was read by a microplate reader (Synergy H1, Winooski, VT, USA) at times of 0 and 10 min. The HMGCoAR-dependent oxidation of NADPH and the inhibition properties of the peptides were measured by absorbance reduction, which is directly proportional to enzyme activity.

HepG2 cells = assay: Fluorescent LDL uptake by HepG2 cells in the presence of PCSK9; format: cell-based, human; details: co-incubated with PCSK9 4 μg/mL, relative to untreated control cells
Method: HepG2 cells (3 × 10^4/well) were seeded in 96-well plates and kept in complete growth medium for 2 days before treatment. On the third day, the cells were washed with PBS and then starved overnight (O/N) in DMEM without FBS and antibiotics. After starvation, they were treated with 4.0 μg/mL PCSK9, 4.0 μg/mL PCSK9 + diimidazole analogues, and vehicle (H2O) for 2 h with at 37 °C under a 5% CO2 atmosphere. At the end of the treatment, the culture medium was replaced with 50 μL/well LDL-DyLight 550 working solution (Cayman Chemical Company, Ann Arbor, MI, USA) prepared in DMEM without FBS and antibiotics. The cells were additionally incubated for 2 h at 37 °C, and then the culture medium was aspirated and replaced with PBS (100 μL/well). The degree of LDL uptake was measured using a Synergy H1 fluorescent plate reader (Winooski, VT, USA) (excitation and emission wavelengths of 540 and 570 nm, respectively). Fluorescent LDL uptake was finally assessed following optimized protocol.[14]

platelet-rich plasma = assay: Platelet aggregation by light transmission aggregometry (PCSK9-potentiated, epinephrine-induced); format: cell-based, human; details: 10 nM preincubated with PCSK9 5 μg/mL; epinephrine 0.16 μM; n = 5 healthy donors
Method: Whole blood (WB) was drawn with a 19-gauge needle without venous stasis into citrate (1/10 volume of 0.129 M sodium citrate), discarding the first 4 mL. Platelet-rich plasma (PRP) was obtained by centrifuging whole blood for 10 min at 100g without breaks at room temperature as previously described.[44]
Platelet function was assessed by light transmission aggregometry using PAP-8 aggregometer (BioData). Lag time and area under the curve (AUC) were used as the main parameters describing the kinetic of platelet aggregation as previously described.[3] Briefly, PRP was preincubated with PCSK9 (5 μg/mL, 2 min at 37 °C) followed by epinephrine (0.16 μM) stimulation. To test the effect of Dim16 on PCSK9-dependent platelet aggregation, PCSK9 was preincubated with Dim16 (10 nM) for 15 min at room temperature and then added to PRP.

SMILES	HMG-CoAR activity IC50 [1]	LDL uptake (HepG2 cells; 1 nM) [%]	LDL uptake (HepG2 cells; 10 nM) [%]	IC50 [1] [µM]	effect on PCSK9 potentiation of platelet aggregation (lag time, AUC) (platelet-rich plasma)
C#Cc1ncc(-c2ncc(-c3ccc4ccccc4c3)n2CCCC(C)(C)C)n1CCCCCNC [Dim3, 5-(1-(4,4-Dimethylpentyl)-2′-ethynyl-5-(naphthalen-2-yl)-1H,3′H-[2,4′-biimidazol]-3′-yl)-N-methylpentan-1-amine]	no in vitro inhibitory activity; also recorded: not active	94.12 ± 10.95	103.47 ± 7.34		
CNCCCCCn1c(-c2ncc(-c3ccc4ccccc4c3)n2CCCC(C)(C)C)cnc1I [Dim16, 5-(1-(4,4-Dimethylpentyl)-2′-iodo-5-(naphthalen-2-yl)-1H,3′H-[2,4′-biimidazol]-3′-yl)-N-methylpentan-1-amine]		81.87 ± 7.45	136.47 ± 8.81	147 ± 75.1	significantly prevented
